Experimental data reported in patent US5925369A, “Bis alkanoyl esters of carnitine having bactericidal, fungicidal and antiprotozoal activity” (priority 1996, dated 1999).
Like-named read-outs stand apart in the source and are kept apart here.

Assays:
Type in all cases: cell-based
Gram negative bacteria = assay: MIC on Gram negative bacteria (all strains); conditions: 5 strains
Procedure: (§1) Bacterial suspensions are prepared from an overnight culture in Mueller-Hinton broth and are adjusted, in the same medium, to a final concentration of 5.0×10^4 cells/ml in each well of a 96-well microtiter plate. Substance dilutions (0.3 log) in Mueller-Hinton broth are added to the suspensions in order to have a range of final concentrations from 0.19 to 100 mcg/ml.
(§2) Microtiters are then incubated at 37° C. for 18 hours. (See L. D. THRUPP, Susceptibility testing of antibiotics in liquid media, in: Antibiotics in laboratory medicine. V. LORIAN Ed., II edition, 4, 93-150, Williams & Wilkins, Baltimora, Md. 21202 U.S.A.).

Aspergillus niger = assay: MIC on filamentous fungi; conditions: ATCC16404; Aspergillus niger ATCC 16404, lab collection; read-out: Minimal Inhibitory Concentration
Procedure: (§3) The conidia are collected from 72-hour cultures in Sabouraud agar by washing them with Sabouraud broth and 0.5% Tween 80. After a coarse filtration and washing, the resulting suspensions are adjusted to a final concentration of approx. 5.0×10^4 CFU/ml in a microtiter plate. The substances (0.3 log dilutions in Y.N.B.s.) are added to the fungal suspensions in order to generate a range of final concentrations from 0.19 to 100 mcg/ml. The microtiter plates are then incubated at 35° C. for 48-72 hours.

Fusarium sp. = assay: MIC on filamentous fungi; conditions: Fusarium sp. F 77, lab collection; read-out: Minimal Inhibitory Concentration
Procedure: as §3

Penicillium sp. = assay: MIC on filamentous fungi; conditions: Penicillium sp. 1302, lab collection; read-out: Minimal Inhibitory Concentration
Procedure: as §3

Mucor mucedo = assay: MIC on filamentous fungi; conditions: ATCC7941; Mucor mucedo ATCC 7941, lab collection; read-out: Minimal Inhibitory Concentration
Procedure: as §3

Aspergillus fumigatus = assay: MIC on filamentous fungi; conditions: ATCC28212; Aspergillus fumigatus ATCC 28212, lab collection; read-out: Minimal Inhibitory Concentration
Procedure: as §3

Propionibacterium acnes = assay: MIC on anaerobic bacteria; conditions: Cutibacterium acnes; Propionibacterium acnes IDI 3482, anaerobic, Gram positive clinical isolate (suppurative acne); read-out: Minimal Inhibitory Concentration
Procedure: (§4) Bacteria from cultures in […].) medium on Petri dishes, grown overnight at 35° C. in an anaerobic jar, were resuspended in Brucella broth. The suspensions were adjusted to 1.0×10^8 cells/ml and distributed (0.2 ml/well) in microtiter plates (96-well U-bottomed plate). At the same time, 0.3 log dilutions of the substances are mixed with W. C. agar medium in four-sectioned Petri dishes, which are then seeded with the bacterial suspension by means of a multipoint inoculator (1.0×10^5 cells/spot). The plates are then incubated at 35° C. for 48 hours in an anaerobic jar) (See J. E. ROSENBLATT, Antimicrobial susceptibility testing of anaerobes, in Antibiotics in laboratory medicine. V. LORIAN Ed., II edition, 6, 159-180, Williams & Wilkins, Baltimora, Md 21202 U.S.A.).

Bacteroides fragilis = assay: MIC on anaerobic bacteria; conditions: ATCC25285; Bacteroides fragilis ATCC 25285, anaerobic, Gram negative, lab collection; read-out: Minimal Inhibitory Concentration
Procedure: as §4

Eubacterium lentum = assay: MIC on anaerobic bacteria; conditions: Eggerthella lenta; Eubacterium lentum IDI 3502, anaerobic, Gram positive clinical isolate (suppurative wound); read-out: Minimal Inhibitory Concentration
Procedure: as §4

S. typhimurium = assay: MIC on Gram negative bacteria; conditions: Salmonella enterica; S. typhimurium DS, lab collection; read-out: Minimal Inhibitory Concentration
Procedure: as §1, §2

Enterobacter cloacae = assay: MIC on Gram negative bacteria; conditions: Enterobacter cloacae SG 3 II, clinical isolate; read-out: Minimal Inhibitory Concentration
Procedure: as §1, §2

K. oxytoca = assay: MIC on Gram negative bacteria; conditions: Klebsiella oxytoca; K. oxytoca 552, lab collection; read-out: Minimal Inhibitory Concentration
Procedure: as §1, §2

Klebsiella pneumoniae = assay: MIC on Gram negative bacteria; conditions: Klebsiella pneumoniae SG 5 II, clinical isolate; read-out: Minimal Inhibitory Concentration
Procedure: as §1, §2

Pseudomonas aeruginosa = assay: MIC on Gram negative bacteria; conditions: Pseudomonas aeruginosa IDI 3530, clinical isolate (ulcer); read-out: Minimal Inhibitory Concentration
Procedure: as §1, §2

[1] = test system: E. coli (Escherichia coli); assay: MIC on Gram negative bacteria; conditions: read-out: Minimal Inhibitory Concentration
Procedure: as §1, §2

E. aerogenes = assay: MIC on Gram negative bacteria; conditions: Klebsiella aerogenes; E. aerogenes UM, lab collection; read-out: Minimal Inhibitory Concentration
Procedure: as §1, §2

Proteus sp. = assay: MIC on Gram negative bacteria; conditions: Proteus sp. SG 9 II, clinical isolate; read-out: Minimal Inhibitory Concentration
Procedure: as §1, §2

[2] = test system: S. aureus (Staph. aureus); assay: MIC on Gram positive bacteria; conditions: Staphylococcus aureus, read-out: Minimal Inhibitory Concentration
Procedure: as §1, §2

[3] = test system: S. faecalis (Strept. faecalis); assay: MIC on Gram positive bacteria; conditions: Enterococcus faecalis, read-out: Minimal Inhibitory Concentration
Procedure: as §1, §2

Staph. sp. = assay: MIC on Gram positive bacteria; conditions: Staph. sp. SG1 II, clinical isolate; read-out: Minimal Inhibitory Concentration
Procedure: as §1, §2

dermatophytes = assay: MIC on dermatophytes (all strains); conditions: for MIC: 22 strains
Procedure: Mycelium fragments, micro and macroaleuriospores are harvested from 7-day fungal cultures grown at 30 ° C. in Potato Dextrose agar by washing them with Sabouraud broth and 0.5% Tween 80. After a coarse filtration and washing, the fungal suspension is resuspended in Yeast Nitrogen Base supplemented with asparagine and glucose (YNBs) to yield a final concentration of 1.0×10^5 infective units/ml in a microtiter plate. The substances (0.3 log dilutions in Y.N.B.s.) are added to the fungal suspensions in order to generate a range of final concentrations from 0.19 to 100 mcg/ml. The microtiter plates are then incubated at 30° C. for 96-120 hours.

[4] = Escherichia coli SG 4 II, clinical isolate
[5] = S. aureus 306 MR, lab collection
[6] = Staph. aureus IDI 3530, clinical isolate (ulcer)
[7] = Staph. aureus IDI 3593, clinical isolate (ulcer)
[8] = Staph. aureus SG II, clinical isolate
[9] = S. faecalis 501, lab collection
[10] = S. faecalis 509, lab collection
[11] = Strept. faecalis IDI 3580, clinical isolate (ulcer)

Row | SMILES | MIC (Gram negative bacteria; clinical isolates) [µg/mL] | MIC (Gram negative bacteria; lab collection) [µg/mL] | MIC (Aspergillus niger) [µg/mL] | MIC (Fusarium sp.) [µg/mL] | MIC (Penicillium sp.) [µg/mL] | MIC (Mucor mucedo) [µg/mL] | MIC (Aspergillus fumigatus) [µg/mL] | MIC (Propionibacterium acnes) [µg/mL] | MIC (Bacteroides fragilis) [µg/mL] | MIC (Eubacterium lentum) [µg/mL] | MIC (S. typhimurium) [µg/mL] | MIC (Enterobacter cloacae) [µg/mL] | MIC (K. oxytoca) [µg/mL] | MIC (Klebsiella pneumoniae) [µg/mL] | MIC (Pseudomonas aeruginosa) [µg/mL] | MIC ([1]; E. coli 92 F, lab collection) [µg/mL] | MIC [1, 4] [µg/mL] | MIC (E. aerogenes) [µg/mL] | MIC (Proteus sp.) [µg/mL] | MIC ([2]; S. aureus 303, lab collection) [µg/mL] | also measured
1 | CCCCCCCCCCCOC(=O)C[C@H](C[N+](C)(C)C)OC(=O)CC(C)C [ST 1103, isovaleryl L-carnitine undecyl ester methanesulfonate, reference compound] | 35 | 27.5 | 12.5 | 6.25 | 12.5 | 50 | 12.5 | 6.25 | 25 | 3.12 | 25 | 25 | 12.5 | 50 | 25 | 25 | 25 | 25 | 50 | 6.25 | MIC [2, 5]: 6.25 µg/mL; MIC [2, 6]: 3.12 µg/mL; MIC [2, 7]: 3.12 µg/mL; MIC [2, 8]: 3.12 µg/mL; MIC [3, 9]: 3.12 µg/mL; MIC [3, 10]: 1.56 µg/mL; MIC [3, 11]: 6.25 µg/mL; MIC (Staph. sp.): 6.25 µg/mL; MIC (dermatophytes): 13.5 µg/mL
2 | CCCCCCCCCCC(=O)O[C@H](CC(=O)OCc1ccc(COC(=O)C[C@H](C[N+](C)(C)C)OC(=O)CCCCCCCCCC)cc1)C[N+](C)(C)C [ST 1226, bis(undecanoyl L-carnitine chloride)p-xylilene diester] | 35 | 26.2 | 6.25 | 3.12 | 1.56 | 25 | 6.25 | 6.25 | 12.5 | 6.25 | 25 | 12.5 | 25 | 50 | 50 | 25 | 12.5 | 6.25 | 50 | 3.12 | MIC [2, 5]: 3.12 µg/mL; MIC [2, 6]: 3.12 µg/mL; MIC [2, 7]: 3.12 µg/mL; MIC [2, 8]: 3.12 µg/mL; MIC [3, 9]: 3.12 µg/mL; MIC [3, 10]: 1.56 µg/mL; MIC [3, 11]: 6.25 µg/mL; MIC (Staph. sp.): 3.12 µg/mL; activity compared with ST 1103 (dermatophytes): higher activity than ST 1103; MIC (dermatophytes): 3.19 µg/mL
